Experimental data reported in PMC9821961, “Ring-Modified Histidine-Containing Cationic Short Peptides Exhibit Anticryptococcal Activity by Cellular Disruption” (Molecules, 2022).
Converted amounts (≈) assume the structure as drawn. “And” between values parts separate entries of the source, which are not always exact repeats. Equal values may be shown once. Read-outs that look alike come from different tables or passages of the source.

Columns and labels:
C. parapsilosis = assay: microbe, parasite or virus in culture; type: cell-based, Candida parapsilosis; settings: 48 h
Summary of the method: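 Growth inhibition was measured by broth microdilution. MIC and IC50 were calculated from optical density at 600 nm after 48 h at 30 °C for Candida and Cryptococcus (10^3 CFU/mL, RPMI 1640 or YPED) and after 24 h at 37 °C for the Gram-positive bacteria (10^5 CFU/mL, Mueller Hinton).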

E. faecalis = assay: microbe, parasite or virus in culture; type: cell-based, Enterococcus faecalis; settings: 48 h
S. aureus = assay: microbe, parasite or virus in culture; type: cell-based, Staphylococcus aureus; settings: 48 h
Text: (§1) Microbial strains: Microbial strains were procured from National Culture Collection of Pathogenic Fungi (NCCPF) at the Postgraduate Institute of Medical Education & Research (PGIMER), Chandigarh and Microbial Type Culture Collection and Gene bank (MTCC) at the Institute of Microbial Technology (IMTECH), Chandigarh, India. Peptides were screened against five different strains of fungi: viz. Candida albicans (NCCPF400034), Candida glabrata (MTCC 3019), Candida parapsilosis (NCCPF 440002), Candida krusei (NCCPF 440002) and Cryptococcus neoformans (NCCPF250316), and five strains of bacteria: viz. Escherichia coli (MTCC 2961), Staphylococcus aureus (MTCC 3160), Enterococcus faecalis (MTCC 439), Streptococcus pyogenes (MTCC 442) and Pseudomonas aeruginosa (MTCC 3542).
(§2) Growth media: Antifungal susceptibility testing was carried out using standard broth microdilution assays as per the Clinical and Laboratory Standards Institute (CLSI) guidelines for fungi. RPMI 1640 (Sigma), yeast extract, peptone and dextrose (YPED, Himedia) were used as the incubation broths. The cells were diluted to a cell density of 10^3 colony forming unit (CFU/mL) and incubated at 30 °C for 48 h. Furthermore, Muller Hinton (Himedia) media was utilized for bacterial strains and antibacterial activity was evaluated per CLSI guidelines for bacteria. […] Amphotericin B (Himedia, India) and rifampicin (Himedia, India) were used as standard drugs for the evaluation of activity against all the fungal and bacterial strains, respectively.
(§3) The stock solutions of peptides (2 mg/mL) were prepared in DMSO. Specific amounts of peptide from stock solution were added to a 96-well microtiter plate containing 100 μL of growth media and then serially diluted two-fold. A further 100 μL of growth media containing microbial cells were added to each well and incubated at 30–37 °C for 24–48 h. The optical density (OD) was measured at 600 nm using a BioStack Ready (BioTek Instruments, Winooski, VT, USA) microplate reader to analyze microbial growth inhibition, and IC50 and MIC values were calculated. To visualize the growth and inhibition pattern, a solution of 3-(4,5-dimethylthiazol-2-yl)-2,5-diphenyltetrazolium bromide (MTT) in water was added to the plate and incubated for 2–3 h. MTT reacts with the mitochondrial dehydrogenases, which are present only in a viable cell, to give blue colored formazan crystals. Therefore, a darker color indicates a high number of viable cells; however, non-viable cells appear pale or colorless.

S. pyogens = assay: microbe, parasite or virus in culture; type: cell-based, Streptococcus pyogenes; settings: 48 h
E. coli = assay: microbe, parasite or virus in culture; type: cell-based, Escherichia coli; settings: 48 h
Text: as §1, §2, §3

C. neoformans cells [1] = assay: Internal cell morphology analysis by TEM (HRTEM, STEM); type: cell-based, Cryptococcus neoformans; settings: at MIC, 12 h
Description: The samples were prepared in a similar manner to as mentioned in the procedure for SEM sample preparation, up until the dehydration of cells with increasing gradients of ethanol. The dehydrated samples were then embedded in resin which was prepared from an epoxy embedding medium kit (Sigma, 45359-1EA-F). Increasing gradients (10%, 20%, 30%, 50%, 70% and 90%) of resin were added to the samples followed by incubation for 1–2 h at room temperature after addition of each gradient. Undiluted resin (100%) was added to the sample and incubated for 24 h at 70 °C. Semi-thin and ultrathin sections were cut with an ultramicrotome (Ultramicotome Lecia EM UC6). The sections of samples were placed on a 3.05 mm diameter and 200 mesh copper grid and stained with uranyl acetate or lead acetate, before observation under the HRTEM (FEI Technai G2 F20, Eindhoven, The Netherlands) and analysis at 120 KV.

C. neoformans cells [2] = assay: CLSM FITC-labeled peptide uptake assay; type: cell-based, Cryptococcus neoformans; settings: FITC-tagged peptide, 12 h
Description: After incubation, cells were harvested by centrifugation at 2000× g for 10 min at 4 °C and suspended in PBS and mounted on a slide for visualization under a confocal microscope with excitation and emission wavelengths of 488 nm and 515 nm, respectively.

[3] = test system: C. neoformans (ATCC350) cells; assay: CLSM PI uptake assay; type: cell-based, Cryptococcus neoformans; settings: at MIC, 12 h, then PI
Description: After incubation, treated and untreated cells were centrifuged at 2000× g for 10 min at 4 °C and suspended in cold PBS and followed by 2–3 washings with PBS. The cells were then incubated with PI (1.49 μM) for 1 h at room temperature with constant shaking (150× g rpm), and later harvested by centrifugation and suspended in PBS. Then, the cells were examined using confocal microscopy (Olympus Fluoview™ FV1000 SPD; Olympus, Tokyo, Japan) with a wavelength of >560 nm for PI. C. neoformans cells without treatment of active peptides served as a control.

Red blood cells (RBCs) = settings: for % Hemolysis HC10 / % Hemolysis HC50: red cells of human
Description: Human blood in 10% citrate phosphate dextrose was obtained from Government Hospital, Chandigarh, India. Red blood cells (RBCs) were harvested by spinning at 1000× g for 5 min followed by washing with PBS 3–5 times. The packed cell volume was obtained and utilized to make a 0.8% (v/v) suspension of RBCs in PBS. […] The plate was incubated at 37 °C for 60 min followed by centrifugation at 1000× g for 5 min at 25 °C. The supernatant (100 μL) was transferred to a fresh microtiter plate and absorbance was recorded at 414 nm (Varioskan LUX multimode microplate reader, Thermo Scientific, Waltham, MS, USA) to analyze RBC lysis. Untreated RBCs in PBS and lysed RBCs in 0.1% Triton X-100 were used as negative and positive controls, respectively [29]. Percent hemolysis was calculated using following equation [38]. (3) % Hemolysis=Absorbance of treated sample−Absorbance of negative control/Absorbance of positive control−Absorbance of negative control×100

Cryptococcal cells = settings: for MIC Alone: cryptococcal cells, agent alone
in vitro = settings: human, HEK-293 cells
Description: (§4) The cells (50,000 cells/well) were seeded to the wells of the plate in Dulbecco’s Modified Eagle Medium (DMEM) supplemented with 10% fetal bovine serum at 37 °C overnight and incubated for 24 h to achieve confluency. Peptides at different concentrations of 50, 25, 12.5, 6.25, 3.12, 1.56 and 0.78 μg/mL were added to the cells in separate wells and incubated at 37 °C for 18 h. A further 20 µL MTT solution (5 mg/mL stock conc. in PBS) was added and the plate was incubated for another 3–4 h. To detect the viable cells that react with MTT to make formazan crystals, 120 μL of supernatant was removed and 100 μL DMSO was added to dissolve the crystals. Untreated cells and DMSO (10%) were used as negative and positive controls, respectively [37]. The percent viability of cells was calculated using equation:(2) % Cell viability=Av. Absorbance of treated cells/Av. Absorbance of control cells×100

C. neoformans cells [4] = assay: Time kill assay; settings: time-kill profile over 24 h

Description for HEK 293: as §4

| SMILES | IC50 (C. parapsilosis) [µg/mL] | MIC (C. parapsilosis) [µg/mL] | IC50 (E. faecalis) [µg/mL] | MIC (E. faecalis) [µg/mL] | IC50 (S. aureus) [µg/mL] | MIC (S. aureus) [µg/mL] | IC50 (S. pyogens) [µg/mL] | MIC (S. pyogens) [µg/mL] | IC50 (E. coli) [µg/mL] | MIC (E. coli) [µg/mL] | Internal morphology of treated cells (HRTEM) (C. neoformans cells [1]) | Morphology of treated cells (STEM) (C. neoformans cells [1]) | Fluorescence of cells incubated with FITC-labeled peptide (CLSM) (C. neoformans cells [2]) | PI fluorescence of treated cells (CLSM) [3] | Cytotoxic nature (HEK 293) | Hemolytic behavior (Red blood cells (RBCs)) | % Hemolysis HC10 (Red blood cells (RBCs)) [µg/mL] | % Hemolysis HC50 (Red blood cells (RBCs)) [µg/mL] | MIC Alone (Cryptococcal cells) [µg/mL] | CC50 at 18 h (in vitro) [µg/mL] | also measured |
| --- | --- | --- | --- | --- | --- | --- | --- | --- | --- | --- | --- | --- | --- | --- | --- | --- | --- | --- | --- | --- | --- |
| COC(=O)[C@H](Cc1ncn(Cc2ccccc2I)c1I)NC(=O)[C@@H](N)Cc1c[nH]c2ccccc12 [10o, Trp-His[1-(2-iodobenzyl)-5-iodo]-OMe] | >35.2 | >64.0 | 17.6 (≈ 25.2 µM) | 32.0 (≈ 45.9 µM) | >35.2 | >64.0 | >35.2 | >64.0 | >35.2 | >64.0 | cell membrane was completely damaged | highly deformed and shrunken | prominent green fluorescence | prominent red fluorescence | non-cytotoxic | non-hemolytic | 52.17 | >100 | 4.59 (≈ 6.58 µM) | > 100 | MIC In Combination (Cryptococcal cells; combination 10o + Amp B): 0.287 µg/mL; Effect (Cryptococcal cells; combination 10o + Flu): Additive; Fold Decrease in MIC (Cryptococcal cells; combination 10o + Flu): 1.5; MIC In Combination (Cryptococcal cells; combination 10o + Flu): 2.999 µg/mL; Time after which growth/CFUs of cryptococcal cells dropped or were inhibited (C. neoformans cells [4]): 12 h |
| COC(=O)[C@H](Cc1ncn(Cc2cc(C(C)(C)C)cc(C(C)(C)C)c2)c1I)NC(=O)[C@@H](N)Cc1c[nH]c2ccccc12 [10d, Trp-His[1-(3,5-di-tert-butylbenzyl)-5-iodo]-OMe] | >35.2 | >64.0 | 17.6 (≈ 25.7 µM) | 32.0 (≈ 46.8 µM) | 17.6 (≈ 25.7 µM) | 32.0 (≈ 46.8 µM) | >35.2 | >64.0 | 17.6 (≈ 25.7 µM) | 32.0 (≈ 46.8 µM) | complete lysis of the cell membrane | highly shrunken cells with irregular cell membranes | prominent green fluorescence | prominent red fluorescence | non-cytotoxic | non-hemolytic | 50.53 | >100 | 4.01 (≈ 5.87 µM) | > 100 | Fold Decrease in MIC (Cryptococcal cells; combination 10d + Amp B): 16; MIC In Combination (Cryptococcal cells; combination 10d + Amp B): 0.25 µg/mL and 0.250 µg/mL; FICI (Cryptococcal cells; combination 10d + Flu): 0.19; MIC In Combination (Cryptococcal cells; combination 10d + Flu): 0.501 µg/mL; Time after which growth/CFUs of cryptococcal cells dropped or were inhibited (C. neoformans cells [4]): 12 h |
